Several values for one entry are separate records, joined by “and”; a condition that tells them apart may be missing. Identical values can stand only once.
Assays:
[1] = tested on: stomach cancer cell line (SNU-638); assay: MTT assay, 48 h, SNU-638; conditions: 48 h, MTT
Protocol: (§6) 7 cell lines were aliquoted to each well of a 96-well plate at 5×10^3 cells, and cultured for 24 hours. […] The drug-treated cells were cultured in an incubator (37° C., 5% CO2) for 48 hours, and 5 mg/ ? MTT reagent 10 ? was added to each well and cultured for additional 4 hours. Then, culture medium was removed and DMSO 100 ? was treated to dissolve the MTT stained precipitate, and absorbance was measured at 540 nm with a microplate reader.

[2] = ASCA101 in beagle dog plasma after intravenous administration (LC-MS/MS); type: in vivo
[3] = tested on: breast cancer cell line (MDA-MB-231); assay: MTT assay, 72 h, breast cancer cell line; type: cell-based; conditions: MDA-MB-231; 72 h; MTT
Protocol: (§1) The calcium salts of Examples 1 to 3 were added to each well by concentration (20 mg/ ? , mg/ ? , 0.8 mg/ ? , 0.16 mg/ ? , 0.032 mg/ ? , 0.0064 mg/ ? , 0.00128 mg/ ? , 0.000256 mg/ ? ). […] The supernatant was removed using a centrifuge, DMSO 200 ? was added to each well to dissolve the MTT stained precipitate, and OD540 value was measured at 540 nm with an ELISA reader.

[4] = tested on: A549/LUC cells implanted into the lung; assay: Lung cancer mouse model (A549/LUC orthotopic model); type: in vivo; conditions: 100 mg/kg IV once a day (Qdx4) for 5 weeks; vs control
Protocol: (§2) In order to construct an animal model with orthotopic xenotransplantation (orthotopic xenograft) and general animal model (orthotopic xenograft), A549/LUC cells and DLD-1 cells were subcultured, and then the cancer cells were injected into the lung and colon of the mice, respectively.
Since the model was directly injected with cancer cells into the mouse organ, the growth of cancer was not confirmed by observation of the mouse appearance. Therefore, in the animal model to which A549/LUC cells were injected, D-Luciferin was injected intraperitoneally every 7 days to determine the growth saturation of cancer by luminescence imaging measurement using IVIS spectrum imaging system (Xenogen) device. On the other hand, in the animal model to which DLD-1 cells were injected, after 7 days, the experimental subjects were sacrificed to determine the growth saturation of cancer. […]
The calcium salts of Examples 1 to 3 were administered to the same mouse model constructed in Test Example 5-1 (A549/LUC orthotopic model), respectively. […] Further, in order to quantify each imaging result more accurately, in vivo images were obtained by measuring ROI (Region of Interest), which is a program of IVIS spectrum (Xenogen), and the results are shown in FIG. 21.

HT-29 cell = assay: IC50 of each drug alone, 48 h, HT-29; type: cell-based, human
Protocol: (§3) Then, various concentration of Example or chemical anticancer drugs (Fluorouracil (5-FU), SN-38, Paclitaxel (PTX)) were treated thereto alone.

HCT-116 cell [5] = assay: Co-treatment with chemical anticancer drug, growth inhibition and combinational index; conditions: 48 h, co-treated with Paclitaxel, PTX (μM) in c0 and Example 1 (μM) in c1 of the row
Description: As the co-delivery effect, the synergistic effect was CI≤0.85, the additive effect was 0.85<CI≤1.15, and the antagonistic effect was CI>1.15.

[6] = tested on: lung cancer cell line (A-549); assay: MTT assay, 48 h, A549; conditions: 48 h, MTT
Protocol: as §6

[7] = tested on: pancreatic cancer cell line (PANC-1); assay: MTT assay, 48 h, PANC-1; conditions: 48 h, MTT
Protocol: as §6

[8] = tested on: colorectal cancer cell line (HCT-116); assay: MTT assay, 48 h, HCT-116; conditions: 48 h; MTT; value in brackets
Protocol: as §6

[9] = tested on: liver cancer cell line (HepG2); assay: MTT assay, 48 h, HepG2; conditions: 48 h, MTT
Protocol: as §6

[10] = tested on: DLD-1 cells transplanted into the colon; assay: Colorectal cancer mouse model (DLD-1 orthotopic model); type: in vivo; conditions: 100 mg/kg IV once a day (Qdx4) for 1 week; dissected after 1 week; vs control
Protocol: as §2
Since the model was directly injected with cancer cells into the mouse organ, the growth of cancer was not confirmed by observation of the mouse appearance. Therefore, in the animal model to which A549/LUC cells were injected, D-Luciferin was injected intraperitoneally every 7 days to determine the growth saturation of cancer by luminescence imaging measurement using IVIS spectrum imaging system (Xenogen) device. On the other hand, in the animal model to which DLD-1 cells were injected, after 7 days, the experimental subjects were sacrificed to determine the growth saturation of cancer.
In other words, general DLD-1 cells were transplanted into the colon to construct a colorectal cancer mouse model (DLD-1 orthotopic model), and orthotopic xenotransplantation was conducted to the lung to construct a lung cancer mouse model (A549/LUC orthotopic model).
Further, weight of cancer tissue was measured to confirm the anticancer efficacy of the inventive substance in vivo and the results are shown in FIG. 19B.

DLD-1 = assay: Hetero salts vs homo salts, cell viability and cytotoxicity, DLD-1; type: cell-based; conditions: DLD-1; 10 mM
Protocol: (§4) Hetero salts prepared according to the examples (ASCA101, ASCA201) and homo salts were applied to colorectal cancer cell lines, and their effects on cell viability and cytotoxicity were evaluated.
(§5) Herein, “Na-ASC” refers to sodium ascorbate, “Na-DCA” refers to sodium dichloroacetate, “Ca (ASC) 2” refers to calcium ascorbate, “Ca (DCA) 2” refers to calcium dichloroacetate, and “Ca (LA) 2” refers to calcium lactate.

[11] = tested on: ovarian cancer cell line (A2780); assay: MTT assay, 48 h, A2780; conditions: 48 h, MTT
Protocol: as §6

[12] = tested on: poly (ADP-ribose) polymerase 1 (PARP-1); assay: Western blot, PARP-1 expression in HCT-116; type: cell-based, human; conditions: 24 h
Protocol: The cultured cancer cells were pulverized with a homogenizer and centrifuged, and the expression levels of poly (ADP-ribose) polymerase 1 (PARP-1), β-catenin, VEGF and β-actin proteins contained in the lysate were measured using Western blot.

[13] = ASCA101 in rat plasma after intravenous administration (LC-MS/MS); type: in vivo; conditions: 0.083 hours after intravenous administration
[14] = tested on: colorectal cancer cell line (HT-29); assay: MTT assay, 48 h, HT-29; conditions: 48 h, MTT
Protocol: as §6

[15] = tested on: colorectal cancer cell line (DLD-1); assay: MTT assay, 72 h, colorectal cancer cell line; type: cell-based; conditions: DLD-1; 72 h; MTT
Protocol: as §1

[16] = tested on: human colorectal cancer cell lines (HCT-116 and HT-29); assay: Change in ascorbic acid level in cancer cells; type: cell-based; conditions: 1 mM; 24 h; lysate; vs untreated control
Protocol: After culture, the cultured cancer cells were pulverized with a homogenizer and centrifuged, and the concentration of ascorbic acid contained in the lysate was measured using an ascorbic acid assay kit (Biovision, San Francisco, CA).

DLD-1 cell = assay: IC50 of each drug alone, 48 h, DLD-1; type: cell-based
Protocol: as §3

[17] = tested on: brain cancer cell line (U87MG); assay: MTT assay, 72 h, brain cancer cell line; type: cell-based; conditions: U87MG, MTT
Protocol: as §1

PDH enzyme = assay: Time-dependent PDH enzyme activity in cancer cells; type: cell-based; conditions: DLD-1 and HT-29 cancer cells; FIG. 29
SW480 = assay: Hetero salts vs homo salts, cell viability and cytotoxicity, SW480; type: cell-based; conditions: SW480; 5 mM
Protocol: as §4, §5

HCT-116 cell [18] = assay: IC50 of each drug alone, 48 h, HCT-116; type: cell-based, human; conditions: read-out: IC50 value, HCT-116 cell
Protocol: as §3

[19] = Maintenance of hetero salt form in aqueous solution (MS); type: physicochemical; conditions: added to water
[20] = GLP toxicity studies (NOAEL), intravenous and oral; type: in vivo
Protocol: In detail, the ionic compound is administered in a dose ranging from 1.61 mg/kg to 64.86 mg/kg based on body weight of the subject. Reflecting the results of actual nonclinical efficacy, toxicity and clinical phase 1 PK/PD (pharmacokinetics/pharmacodynamics) studies, the clinically effective doses are expected to be in the HED (Human Equivalent Dose) ranges 1.61 mg/kg for intravenous administration and 7.22 mg/kg for oral administration-up to a maximum of 32.43 mg/kg for intravenous administration and 64.86 mg/kg for oral administration.

SMILES: O=C([O-])C(Cl)Cl.O=C1O[C@H]([C@@H](O)CO)C([O-])=C1O.[Ca+2] [Example 1, calcium salts of dichloroacetic acid and ascorbic acid]
- IC50 of SNU-638 Stomach cancer (mg/ml) ([1]; value in brackets): (0.48) mg/ml
- IC50 ([1]; read-out: IC50 mM of SNU-638 Stomach cancer): 1.4 mM
- ASCA101 concentration in beagle dog plasma ([2]; 0.083 hours after intravenous administration): 26.835 µg/mL
- maintenance of hetero salt form in plasma / liquid medium ([2]; plasma of rats and beagles after intravenous administration): the hetero salt form was maintained in the bloodstream
- IC50 of Breast cancer cell line [3]: 40 mg/L
- anticancer efficacy and metastasis (luminescence imaging, ROI) [4]: the growth and metastasis of cancer tissues was not shown at all
- IC50 (HT-29 cell): 1330 µM
- Inhibition effect (%) (HCT-116 cell [5]): 73.298% and 63.569%
- IC50 of A549 Lung cancer (mg/ml) ([6]; value in brackets): (0.79) mg/ml
- IC50 ([6]; read-out: IC50 mM of A549 Lung cancer): 2.3 mM
- IC50 of PANC-1 Pancreatic cancer (mg/ml) ([7]; value in brackets): (0.14) mg/ml
- IC50 ([7]; read-out: IC50 mM of PANC-1 Pancreatic cancer): 0.42 mM
- IC50 of HCT-116 Colorectal cancer cell line (mg/ml) [8]: (0.12) mg/ml
- IC50 of HepG2 Liver cancer (mg/ml) ([9]; value in brackets): (0.72) mg/ml
- IC50 ([9]; read-out: IC50 mM of HepG2 Liver cancer): 2.1 mM
- growth of cancer cells / weight of cancer tissue [10]: significantly suppressed growth of cancer cells
- cell viability, DLD-1 (10 mM) (DLD-1): 11.43
- IC50 of A2780 Ovarian cancer (mg/ml) ([11]; value in brackets): (0.06) mg/ml
- IC50 ([11]; read-out: IC50 mM of A2780 Ovarian cancer): 0.17 mM
- concentration at which expression level of full length PARP-1 was decreased the most [12]: 0.18 mg/mL
- ASCA101 concentration in rat plasma [13]: 26.835 µg/mL
- IC50 of HT-29 Colorectal cancer cell line (mg/ml) ([14]; value in brackets): (0.29) mg/ml
- IC50 ([14]; read-out: IC50 mM of HT-29 Colorectal cancer cell line): 0.83 mM
- IC50 of Colorectal cancer cell line [15]: 70 mg/L
- ascorbic acid concentration in cancer cells [16]: increased
- IC50 (DLD-1 cell): 360 µM
- IC50 of Brain cancer cell line [17]: 500 mg/L
- time-dependent PDH activity (PDH enzyme): greater increase in PDH activity during the first 6 hours, with the activity remaining relatively stable beyond 6 hours
- cell viability, SW480 (5 mM) (SW480): 20.72
- IC50 (HCT-116 cell [18]): 311 µM
- retention of hetero salt structure in aqueous solution (MS peaks) [19]: can retain its hetero salt structure in aqueous solution
- human equivalent dose (HED) from NOAEL with safety factor of 10, intravenous ([20]; intravenous route): 1.61 mg/kg
- human equivalent dose (HED) from NOAEL with safety factor of 10, oral ([20]; oral route): 7.22 mg/kg
